Laboratory results: paper PMC6683251, “Flavanol Bioavailability in Two Cocoa Products with Different Phenolic Content. A Comparative Study in Humans” (Nutrients, 2019)
Where two headings read alike, the source gives them in different places.

Experiments:
[1] = Plasma nutrikinetics of flavanol metabolites after a single serving of soluble cocoa product (HPLC-ESI-QToF-MS); assay type: in vivo, human; details: for AUC: human plasma 0-8 h; for AUC / Tmax / Cmax: mean ± SD, n = 13; for Tmax / Cmax: human plasma; for Cmax: read-out: Cmax; for Detection of un-metabolized compound in the collected biological fluids: plasma and urine, CC and CC-PP
Procedure: The study was carried out in thirteen healthy subjects (3 men and 10 women); the mens’ average age and body mass index were 26.67 ± 3.21 year and 22.47 ± 2.97 kg/m^2, respectively, and womens’ were 32.60 ± 9.85 year and 23.36 ± 3.73 kg/m^2, respectively. They were non-smoker, non-vegetarian, non-pregnant women, who were not taking any medication or nutritional supplements, and were not suffering from any chronic pathology or gastrointestinal disorder. The sample size was estimated attending to similar previous bioavailability studies. The volunteers gave their informed consent prior to participation.
(§1) The present randomized, single-blind study was carried out at the Human Nutrition Unit (HNU) of the Institute of Food Science, Technology and Nutrition (ICTAN). Volunteers attended the HNU on two days, separated by two weeks. Three days previous to each visit, participants were instructed not to consume cocoa products (chocolate, soluble cocoa, etc.), juices, tea, wine, grape must, oranges, tangerines, apples, grapes, strawberries or other berries, beets, onions, soybeans and soy derivatives. In addition, volunteers were asked to complete a 24 h food intake recall the day before they attended the HNU in order to monitor any possible food restriction incompliance.
On each intervention day, volunteers arrived at the HNU after an overnight fast. Prior to the intake of the soluble cocoa product, a nurse inserted a cannula in the cubital vein of the non-prevailing arm of the volunteers and blood samples were collected into EDTA-coated tubes at baseline (t = 0) and 0.5, 1, 2, 3, 4, 6, and 8 h after consuming the corresponding cocoa product. The soluble cocoa products, either 15 g of CC or 25 g CC-PP, were dissolved in 200 mL of semi-skimmed milk following manufacturer’s preparation instructions. Plasma was separated by centrifugation (10 min, 3000 rpm, 4 °C) and stored at −80 °C until further analysis. Urine samples were collected at different time intervals (t = −2–0, 0–4, 4–8, 8–12, and 12–24 h) in urine collection flasks that contained 0.5 g of ascorbic acid as preservative and were aliquoted and frozen at −20 °C until analysis. A polyphenol-free breakfast, lunch and afternoon snack were provided 2 h, 4 h, and 8 h after consumption of cocoa products, and water and isotonic beverages were available ad libitum.
A liquid–liquid extraction and protein precipitation with acetonitrile was used to isolate metabolites from plasma. A 1 mL defrosted plasma sample was mixed with 50 μL of ascorbic acid (0.2 g/mL). After vortexing the aqueous mixture, it was added drop wise to 750 μL of cold acetonitrile and vortexed for 2 min before centrifuging at 12,000 rpm for 10 min at 4 °C. The supernatant was separated, and the pellet was re-extracted twice more following the same procedure. Supernatants were combined and reduced to dryness under a stream of nitrogen at 30 °C. The dried samples were resuspended in 150 μL of aqueous formic acid (0.1%) containing 10% acetonitrile acidified with 0.1% formic acid and centrifuged at 4 °C for 20 min at 14,000 rpm. The final supernatant was collected, filtered (0.45 μm pore-size, cellulose-acetate membrane filters, Albet, Dassel (Germany)) and 30 μL were analyzed by high-performance liquid chromatography coupled to electrospray ionisation and quadrupole time-of-flight mass spectrometry (HPLC-ESI-QToF-MS).
Analyses were performed on an Agilent 1200 series LC system coupled to an Agilent 6530A Accurate-Mass Quadrupole Time-Of-Flight (Q-ToF) with ESI-Jet Stream Technology (Agilent Technologies). Compounds were separated on a reverse-phase Ascentis Express C18 (15 cm × 3 mm, […]) column (Sigma-Aldrich Química, Madrid) preceded by a Supelco 55215-U guard column at 30 °C. […]

[2] = Urinary excretion of flavanol metabolites (0-24 h) after a single serving of soluble cocoa product (HPLC-ESI-QToF-MS); assay type: in vivo, human; details: mean ± SD, n = 13; for Excreted in urine, Total: 24 h urine; for Excreted in urine, Basal: basal urine (−2–0 h, before intake)
Procedure: They were non-smoker, non-vegetarian, non-pregnant women, who were not taking any medication or nutritional supplements, and were not suffering from any chronic pathology or gastrointestinal disorder. The sample size was estimated attending to similar previous bioavailability studies. The volunteers gave their informed consent prior to participation.
as §1, with “derivatives.” for “derivatives. In addition, volunteers were asked to complete a 24 h food intake recall the day before they attended the HNU in order to monitor any possible food restriction incompliance.”
On each intervention day, volunteers arrived at the HNU after an overnight fast. […] The soluble cocoa products, either 15 g of CC or 25 g CC-PP, were dissolved in 200 mL of semi-skimmed milk following manufacturer’s preparation instructions. Plasma was separated by centrifugation (10 min, 3000 rpm, 4 °C) and stored at −80 °C until further analysis. […] A polyphenol-free breakfast, lunch and afternoon snack were provided 2 h, 4 h, and 8 h after consumption of cocoa products, and water and isotonic beverages were available ad libitum.
Urine samples were diluted with an equivalent volume of Milli-Q water (50%) and centrifuged at 14000 rpm (10 min, 4 °C). Supernatants were filtered (0.45 μm pore-size cellulose-acetate membrane filters) and a 5 µL aliquot was directly injected into the LC-ESI-QToF-MS equipment.
The test samples, either 30 μL of the plasma extract or 5 μL of diluted urine, were injected and separated using a mobile phase consisting of Milli-Q water (phase A) and acetonitrile (phase B), both containing 0.1% formic acid, at a flow rate of 0.3 mL/min. The mobile phase was initially programmed with 90% of solvent A and 10% of B. The elution program increased to 30% of solvent B in 10 min. Then, the initial conditions (10% solvent B) were recovered in 5 min and maintained for 5 min.
Due to the lack of standards for certain phase II metabolites, they were tentatively quantified using the calibration curves of their corresponding phenolic precursors. […] The rest of microbial metabolites identified, derivatives of hydroxyphenylpropionic, hydroxyphenylacetic, hydroxybenzoic and hippuric acids, were quantified using their respective commercially available standards. Urine concentration of the excreted metabolites was normalized by the volume excreted in each studied interval. […] Calibration curves were freshly prepared in a pool of both plasma and urine due to matrix effects.
Statistical analyses were carried out using the program SPSS (version 23.0, SPSS, Inc., IBM Company, New York, NY, USA). Significant differences between metabolites excreted in urine after consumption of CC and CC-PP cocoa products were evaluated based on non-parametric Wilcoxon test (p < 0.05). To determine the absorption and elimination of epicatechin metabolites after consumption of the soluble cocoa products, metabolite nutrikinetics were studied using the pharmacokinetic functions of Microsoft Excel, calculating the maximum concentration (Cmax), area under curve (AUC) and time to reach maximum concentration (Tmax). Data are expressed as mean ± standard deviation.

[3] = after CC-PP (68.25 mg flavanols)

O=C(O)C1OC(Oc2cc(C3Oc4cc(O)cc(O)c4CC3O)ccc2O)C(O)C(O)C1O (stereo not drawn) [Epicatechin-3′-glucuronide]
AUC ([1]; both sexes, oral, 19.8 mg, after CC (19.80 mg flavanols), read-out: AUC): 0.072 ± 0.028 µM·h
Tmax ([1]; both sexes, oral, 19.8 mg, after CC (19.80 mg flavanols), read-out: Tmax): 1.5 ± 0.5 h
AUC ([1]; both sexes, oral, after CC-PP (68.25 mg flavanols), read-out: AUC): 0.11 ± 0.066 µM·h
Cmax ([1]; both sexes, oral, after CC (15 g in 200 mL semi-skimmed milk, 19.80 mg flavanols)): 25 ± 1 nM
Tmax ([1]; both sexes, oral, after CC-PP (68.25 mg flavanols), read-out: Tmax): 1.4 ± 0.8 h
Cmax ([1]; both sexes, oral, after CC-PP (25 g in 200 mL semi-skimmed milk, 68.25 mg flavanols)): 37 ± 1 nM
Excreted in urine, Total ([2]; after CC (19.80 mg flavanols)): 0.622 ± 0.130 µmol
Excreted in urine, 0–4 h ([2]; after CC (19.80 mg flavanols)): 0.355 ± 0.071 µmol
Excreted in urine, 4–8 h ([2]; after CC (19.80 mg flavanols)): 0.267 ± 0.059 µmol
Excreted in urine, 8–12 h ([2]; after CC (19.80 mg flavanols)): <L.Q.
Excreted in urine, 12–24 h ([2]; after CC (19.80 mg flavanols)): <L.Q.
Excreted in urine, Total [2, 3]: 1.653 ± 0.462 µmol
Excreted in urine, 0–4 h [2, 3]: 0.958 ± 0.272 µmol
Excreted in urine, 4–8 h [2, 3]: 0.695 ± 0.190 µmol
Excreted in urine, 8–12 h [2, 3]: <L.Q.
Excreted in urine, 12–24 h [2, 3]: <L.Q.

5-Phenyl-γ-valerolactone-methoxy-glucuronide [PVL-methoxy-glucuronide]
AUC ([1]; after CC (19.80 mg flavanols)): 0.078 ± 0.032
AUC [1, 3]: 0.091 ± 0.059
Tmax ([1]; after CC (19.80 mg flavanols)): 5.3 ± 1.0 h
Cmax ([1]; after CC (15 g in 200 mL semi-skimmed milk, 19.80 mg flavanols)): 22 ± 1 nM
Tmax [1, 3]: 5.6 ± 1.3 h
Cmax ([1]; after CC-PP (25 g in 200 mL semi-skimmed milk, 68.25 mg flavanols)): 27 ± 3 nM

Oc1cc(O)c2c(c1)O[C@H](c1ccc(O)c(O)c1)[C@H](O)[C@H]2c1c(O)cc(O)c2c1O[C@H](c1ccc(O)c(O)c1)[C@@H](O)C2 [procyanidins B1, procyanidin B1]
Detection of un-metabolized compound in the collected biological fluids [1]: Neither un-metabolized epicatechin and catechin nor procyanidins B1 and B2 were detected

O.Oc1cc(O)c2c(c1)O[C@H](c1ccc(O)c(O)c1)[C@@H](O)C2 [catechin]
Detection of un-metabolized compound in the collected biological fluids [1]: Neither un-metabolized epicatechin and catechin nor procyanidins B1 and B2 were detected

O=C1CCC(Cc2cccc(O)c2)O1 (stereo not drawn) [HPVL, 5-(3′-Hydroxyphenyl)-γ-valerolactone]
Excreted in urine, Total ([2]; after CC (19.80 mg flavanols)): <L.Q. *
Excreted in urine, 4–8 h ([2]; after CC (19.80 mg flavanols)): <L.Q.
Excreted in urine, 8–12 h ([2]; after CC (19.80 mg flavanols)): <L.Q.
Excreted in urine, 12–24 h ([2]; after CC (19.80 mg flavanols)): <L.Q.
Excreted in urine, Total [2, 3]: 0.104 ± 0.041 µmol
Excreted in urine, 0–4 h [2, 3]: <L.Q.
Excreted in urine, 4–8 h [2, 3]: 0.104 ± 0.041 µmol
Excreted in urine, 8–12 h [2, 3]: <L.Q.
Excreted in urine, 12–24 h [2, 3]: <L.Q.

O=C(O)Cc1ccc(O)c(O)c1 [3,4-Dihydroxyphenylacetic acid]
Excreted in urine, Basal ([2]; CC intervention): 0.094 ± 0.032 µmol
Excreted in urine, Basal ([2]; CC-PP intervention): 0.109 ± 0.015 µmol
Excreted in urine, Total ([2]; after CC (19.80 mg flavanols)): 1.525 ± 0.974 µmol
Excreted in urine, 0–4 h ([2]; after CC (19.80 mg flavanols)): 0.648 ± 0.505 µmol
Excreted in urine, 4–8 h ([2]; after CC (19.80 mg flavanols)): 0.556 ± 0.379 µmol
Excreted in urine, 8–12 h ([2]; after CC (19.80 mg flavanols)): 0.094 ± 0.033 µmol
Excreted in urine, 12–24 h ([2]; after CC (19.80 mg flavanols)): 0.133 ± 0.020 µmol
Excreted in urine, Total [2, 3]: 2.153 ± 0.401 µmol
Excreted in urine, 0–4 h [2, 3]: 0.751 ± 0.057 µmol
Excreted in urine, 4–8 h [2, 3]: 0.556 ± 0.096 µmol
Excreted in urine, 8–12 h [2, 3]: 0.198 ± 0.037 µmol
Excreted in urine, 12–24 h [2, 3]: 0.539 ± 0.196 µmol

COc1cc(CCC(=O)O)ccc1O [3-Methoxy-4-hydroxyphenylpropionic acid]
Excreted in urine, Basal ([2]; CC intervention): 0.104 ± 0.027 µmol
Excreted in urine, Basal ([2]; CC-PP intervention): 0.077 ± 0.032 µmol
Excreted in urine, Total ([2]; after CC (19.80 mg flavanols)): 0.248 ± 0.071 µmol
Excreted in urine, 0–4 h ([2]; after CC (19.80 mg flavanols)): 0.144 ± 0.044 µmol
Excreted in urine, 4–8 h ([2]; after CC (19.80 mg flavanols)): <L.Q.
Excreted in urine, 8–12 h ([2]; after CC (19.80 mg flavanols)): <L.Q.
Excreted in urine, 12–24 h ([2]; after CC (19.80 mg flavanols)): <L.Q.
Excreted in urine, Total [2, 3]: 0.461 ± 0.138 µmol
Excreted in urine, 0–4 h [2, 3]: 0.175 ± 0.054 µmol
Excreted in urine, 4–8 h [2, 3]: <L.Q.
Excreted in urine, 8–12 h [2, 3]: <L.Q.
Excreted in urine, 12–24 h [2, 3]: 0.199 ± 0.052 µmol

Hydroxybenzoic acid [Hidroxybenzoic acid]
Excreted in urine, Basal ([2]; CC intervention): 0.188 ± 0.041 µmol
Excreted in urine, Basal ([2]; CC-PP intervention): 0.212 ± 0.037 µmol
Excreted in urine, Total ([2]; after CC (19.80 mg flavanols)): 0.798 ± 0.162 µmol
Excreted in urine, 0–4 h ([2]; after CC (19.80 mg flavanols)): 0.145 ± 0.027 µmol
Excreted in urine, 4–8 h ([2]; after CC (19.80 mg flavanols)): 0.200 ± 0.051 µmol
Excreted in urine, 8–12 h ([2]; after CC (19.80 mg flavanols)): 0.070 ± 0.018 µmol
Excreted in urine, 12–24 h ([2]; after CC (19.80 mg flavanols)): 0.195 ± 0.025 µmol
Excreted in urine, Total [2, 3]: 1.380 ± 0.365 µmol
Excreted in urine, 0–4 h [2, 3]: 0.396 ± 0.060 µmol
Excreted in urine, 4–8 h [2, 3]: 0.298 ± 0.036 µmol
Excreted in urine, 8–12 h [2, 3]: 0.172 ± 0.063 µmol
Excreted in urine, 12–24 h [2, 3]: 0.302 ± 0.169 µmol
